Laboratory results taken from patent publication US12565501B2, “Muscarinic acetylcholine M1 receptor antagonists” (Contineum Therapeutics, Inc., priority 2019, dated 2026).

target: T1, human M1 receptor (Homo sapiens, UniProt P11229); test: In vitro functional assay of muscarinic acetylcholine receptor activity (aequorin calcium flux, reversal of EC80 acetylcholine response); type: cell-based; conditions: CHO-K1 cells stably expressing human M1 receptor with aequorin; acetylcholine at EC80; calcium flux (luminescence); read-out: M1 IC50
T1 sequence (P11229 1-460): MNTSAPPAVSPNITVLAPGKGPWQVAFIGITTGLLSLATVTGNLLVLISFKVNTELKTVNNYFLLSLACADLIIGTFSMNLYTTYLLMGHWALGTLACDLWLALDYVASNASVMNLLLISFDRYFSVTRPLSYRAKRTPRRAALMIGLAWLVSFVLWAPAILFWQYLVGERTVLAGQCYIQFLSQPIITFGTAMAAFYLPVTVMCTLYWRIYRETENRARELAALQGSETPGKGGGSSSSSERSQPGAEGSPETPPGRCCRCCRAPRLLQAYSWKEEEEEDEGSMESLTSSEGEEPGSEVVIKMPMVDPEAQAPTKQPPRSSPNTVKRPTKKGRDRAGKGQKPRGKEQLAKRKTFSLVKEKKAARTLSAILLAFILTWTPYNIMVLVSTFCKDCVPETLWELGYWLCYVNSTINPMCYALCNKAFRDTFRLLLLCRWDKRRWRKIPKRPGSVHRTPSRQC
Description: CHO-K1 cells stably expressing human M1 receptor with aequorin (Perkin Elmer) were grown in F12 media (Gibco) containing 10% FBS (ATCC), 0.4 mg/mL geneticin (Sigma-Aldrich) and 0.25 mg/mL Zeocin (Invitrogen). Cells were grown as per the manufacturer's protocol. For compound testing, cells were grown to confluency and detached gently with Accutase (Sigma-Aldrich) followed by centrifugation for 5 min at 150× g. Cells were then re-suspended in assay buffer (i.e. DMEM/F-12 HEPES without phenol red (Invitrogen) with 0.1% BSA (Sigma-Aldrich)) at a density of 5×10^6 cells/ml. Under sterile conditions, 5 μM coelenterazine (Invitrogen) was added to the cells, mixed, then incubated at room temperature protected from light, with gentle agitation, for 4 h.
Primary compound plates were prepared in 100% DMSO in opaque 96-well plates (VWR) and serially diluted in half log increments. Secondary compound plates were prepared at 3× concentration in assay buffer. Compounds were added to white, clear bottom tissue culture treated 96-well plates (Fisher Scientific). Coelenterazine-loaded cells were then added at 5×10^5 cells/well.
Compounds and cells were incubated at room temperature for 30 min in the dark. Acetylcholine at the EC80 concentration was added and calcium flux measured using a FlexStation 3 (Molecular Devices). Sigmoidal dose-response curves were generated by measuring luminescence over 40 sec and calculating the area under the curve. Dose response curves and IC50 values were generated using Prism (GraphPad). Compounds were tested at a final concentration range of 100 μM to […] in 0.1% DMSO.

N#Cc1ccc(N2C3CCC2CN(C(=O)COC2CCc4cc(F)ccc42)C3)nc1 (racemic) [Example 184, 6-(3-(2-((5-fluoro-2,3-dihydro-1H-inden-1-yl)oxy)acetyl)-3,8-diazabicyclo[3.2.1]octan-8-yl)nicotinonitrile] and N#Cc1ccc(N2C3CCC2CN(C(=O)COC2CCc4ccc(F)cc42)C3)nc1 (racemic) [Example 183, 6-(3-(2-((6-fluoro-2,3-dihydro-1H-inden-1-yl)oxy)acetyl)-3,8-diazabicyclo[3.2.1]octan-8-yl)nicotinonitrile] fall in the same range of IC50: 10 to 100 nM for the first, 10 to 100 nM for the second.

First: N#Cc1ccc(N2[C@@H]3C[C@H]2CN(C(=O)CCNC2(c4ccc(F)c(F)c4)CC2)C3)nc1 [Example 40, 6-(3-(3-((1-(3,4-difluorophenyl)cyclopropyl)amino)propanoyl)-3,6-diazabicyclo[3.1.1]heptan-6-yl)nicotinonitrile]
Second: N#Cc1ccc(N2[C@@H]3CC[C@H]2CN(C(=O)CCNC2(c4ccc(F)c(F)c4)CCC2)C3)nc1 [Example 37, 6-(3-(3-((1-(3,4-difluorophenyl)cyclobutyl)amino)propanoyl)-3,8-diazabicyclo[3.2.1]octan-8-yl)nicotinonitrile]
The IC50 of the first is higher: 1000 to 10000 nM for the first, less than 10 nM for the second. The second is the more potent here.

First: COc1cccc2c1CCN(CCC(=O)N1C[C@H]3CC[C@@H](C1)N3c1ccc(C#N)cn1)C2C (mixture of isomers) [Example 38, 6-(3-(3-(5-methoxy-1-methyl-3,4-dihydroisoquinolin-2(1H)-yl)propanoyl)-3,8-diazabicyclo[3.2.1]octan-8-yl)nicotinonitrile]
Second: COc1cc(F)ccc1C(C)NCC(=O)N1CC2CCC(C1)N2c1ccc(C#N)cn1 (racemic) [Example 56, 6-(3-((1-(4-fluoro-2-methoxyphenyl)ethyl)glycyl)-3,8-diazabicyclo[3.2.1]octan-8-yl)nicotinonitrile]
The IC50 of the first is higher: 1000 to 10000 nM for the first, less than 10 nM for the second. The second is the more potent here.

First: CC(OCCC(=O)N1CC2CCC(C1)N2c1ccc(C#N)cn1)c1cccc2nccnc12 (racemic) [Example 312, 6-(3-(3-(1-(quinoxalin-5-yl)ethoxy)propanoyl)-3,8-diazabicyclo[3.2.1]octan-8-yl)nicotinonitrile]
Second: CC(COCC(=O)N1CC2CCC(C1)N2c1ccc(C#N)cn1)c1ccccc1 (stereo in doubt) [Example 185, 6-(3-(2-((S)-2-phenylpropoxy)acetyl)-3,8-diazabicyclo[3.2.1]octan-8-yl)nicotinonitrile]
The IC50 of the first is lower: less than 10 nM for the first, 100 to 1000 nM for the second. The first is the more potent here.

First: N#Cc1ccc(N2C3CCC2CN(C(=O)COC2(c4cccc(Br)c4F)CC2)C3)nc1 [Example 219, 6-(3-(2-(1-(3-bromo-2-fluorophenyl)cyclopropoxy)acetyl)-3,8-diazabicyclo[3.2.1]octan-8-yl)nicotinonitrile]
Second: N#Cc1ccc(N2C3CCC2CN(C(=O)COC2(c4cc(F)ccc4C#N)CC2)C3)nc1 [Example 298, 6-(3-(2-(1-(2-cyano-5-fluorophenyl)cyclopropoxy)acetyl)-3,8-diazabicyclo[3.2.1]octan-8-yl)nicotinonitrile]
The IC50 of the first is lower: 10 to 100 nM for the first, 100 to 1000 nM for the second. The first is the more potent here.

Compared with COc1cnccc1C(F)(F)CCC(=O)N1CC2CCC(C1)N2c1ccc(C#N)cn1 [Example 140, 6-(3-(4,4-difluoro-4-(3-methoxypyridin-4-yl)butanoyl)-3,8-diazabicyclo[3.2.1]octan-8-yl)nicotinonitrile], [2H]C([2H])([2H])Oc1cc(C(F)(F)CCC(=O)N2CC3CCC(C2)N3c2ccc(C#N)cn2)ccn1 [Example 165, 6-(3-(4,4-difluoro-4-(2-(methoxy-d3)pyridin-4-yl)butanoyl)-3,8-diazabicyclo[3.2.1]octan-8-yl)nicotinonitrile] is higher in IC50: less than 10 nM for the first, 10 to 100 nM for the second. The first is the more potent here.

First: N#Cc1ccc(N2[C@@H]3CC[C@H]2CN(C(=O)CCNC2(c4cc(Cl)cc(Br)c4)CC2)C3)nc1 [Example 12, 6-(3-(3-((1-(3-bromo-5-chlorophenyl)cyclopropyl)amino)propanoyl)-3,8-diazabicyclo[3.2.1]octan-8-yl)nicotinonitrile]
Second: N#Cc1ccc(N2[C@@H]3CC[C@H]2CN(C(=O)CCNC2(c4ccc(F)cn4)CC2)C3)nc1 [Example 29, 6-(3-(3-((1-(5-fluoropyridin-2-yl)cyclopropyl)amino)propanoyl)-3,8-diazabicyclo[3.2.1]octan-8-yl)nicotinonitrile]
The IC50 of the first is lower: 100 to 1000 nM for the first, 1000 to 10000 nM for the second.

Compared with COc1cc(C2(OCC(=O)N3CC4CCC(C3)N4c3ccc(C#N)cn3)CC2)ccc1F [Example 224, 6-(3-(2-(1-(4-fluoro-3-methoxyphenyl)cyclopropoxy)acetyl)-3,8-diazabicyclo[3.2.1]octan-8-yl)nicotinonitrile], COc1ccc(C2(OCC(=O)N3CC4CCC(C3)N4c3ccc(C#N)cn3)CC2)cc1OC [Example 225, 6-(3-(2-(1-(3,4-dimethoxyphenyl)cyclopropoxy)acetyl)-3,8-diazabicyclo[3.2.1]octan-8-yl)nicotinonitrile] is higher in IC50: 10 to 100 nM for the first, 100 to 1000 nM for the second.

COc1cc(C(F)(F)COCC(=O)N2CC3CCC(C2)N3c2ccc(C#N)cn2)ccn1 [Example 277, 6-(3-(2-(2,2-difluoro-2-(2-methoxypyridin-4-yl)ethoxy)acetyl)-3,8-diazabicyclo[3.2.1]octan-8-yl)nicotinonitrile] and N#Cc1ccc(N2C3CCC2CN(C(=O)COC2(c4cncc(F)c4)CC2)C3)nc1 [Example 229, 6-(3-(2-(1-(5-fluoropyridin-3-yl)cyclopropoxy)acetyl)-3,8-diazabicyclo[3.2.1]octan-8-yl)nicotinonitrile] fall in the same range of IC50: 100 to 1000 nM for the first, 100 to 1000 nM for the second.

First: N#Cc1ccc(N2C3CCC2CN(C(=O)CNC2(c4cccc(OC(F)(F)F)c4)CCC2)C3)nc1 [Example 119, 6-(3-((1-(3-(trifluoromethoxy)phenyl)cyclobutyl)glycyl)-3,8-diazabicyclo[3.2.1]octan-8-yl)nicotinonitrile]
Second: N#Cc1ccc(N2C3CCC2CN(C(=O)CNC2(c4ccccc4)CC2)C3)nc1 [Example 94, 6-(3-((1-phenylcyclopropyl)glycyl)-3,8-diazabicyclo[3.2.1]octan-8-yl)nicotinonitrile]
The IC50 of the first is lower: 100 to 1000 nM for the first, 1000 to 10000 nM for the second.

First: N#Cc1ccc(N2C3CCC2CN(C(=O)CNC2CCc4cc(F)cc(F)c42)C3)nc1 (racemic) [Example 91, 6-(3-((5,7-difluoro-2,3-dihydro-1H-inden-1 yl)glycyl)-3,8-diazabicyclo[3.2.1]octan-8-yl)nicotinonitrile]
Second: COc1c(F)ccc(C2(NCC(=O)N3CC4CCC(C3)N4c3ccc(C#N)cn3)CC2)c1F [Example 112, 6-(3-((1-(2,4-difluoro-3-methoxyphenyl)cyclopropyl)glycyl)-3,8-diazabicyclo[3.2.1]octan-8-yl)nicotinonitrile]
The IC50 of the first is higher: 100 to 1000 nM for the first, less than 10 nM for the second.

Compared with C[C@H](NCC(=O)N1C[C@H]2CC[C@@H](C1)N2c1ccc(C#N)cn1)c1cccc2c1OC(F)(F)O2 [Example 68, 6-(3-(((S)-1-(2,2-difluorobcnzo[d][1,3]dioxol-4-yl)ethyl)glycyl)-3,8-diazabicyclo[3.2.1]octan-8-yl)nicotinonitrile], CC(c1ccc(F)cc1)[S+]([O-])CC(=O)N1CC2CCC(C1)N2c1ccc(C#N)cn1 (racemic) [Example 167, 6-(3-(2-((1-(4-fluorophenyl)ethyl)sulfinyl)acetyl)-3,8-diazabicyclo[3.2.1]octan-8-yl)nicotinonitrile] is higher in IC50: less than 10 nM for the first, 100 to 1000 nM for the second.

In the case of N#Cc1ccc(N2C3CCC2CN(C(=O)CNC2(c4ccc(F)cn4)CC2)C3)nc1 [Example 69, 6-(3-((1-(5-fluoropyridin-2-yl)cyclopropyl)glycyl)-3,8-diazabicyclo[3.2.1]octan-8-yl)nicotinonitrile], the IC50 is reported as 100 to 1000 nM.
